ChEMBL document CHEMBL5365392, “Inhibitors of ABCG2-mediated multidrug resistance: Lead generation through computer-aided drug design” (Eur J Med Chem, 2023)
“And” between values parts separate entries of the source, which are not always exact repeats. Equal entries are not always repeated.

Columns and labels:
ABCG2 = molecular target: T1, ABCG2 (Homo sapiens, UniProt Q9UNQ0); assay: (§1) Inhibition of ABCG2 (unknown origin)-mediated mitoxantrone efflux at 5 uM relative to control; conditions: probe mitoxantrone
T1 sequence (Q9UNQ0 whole entry): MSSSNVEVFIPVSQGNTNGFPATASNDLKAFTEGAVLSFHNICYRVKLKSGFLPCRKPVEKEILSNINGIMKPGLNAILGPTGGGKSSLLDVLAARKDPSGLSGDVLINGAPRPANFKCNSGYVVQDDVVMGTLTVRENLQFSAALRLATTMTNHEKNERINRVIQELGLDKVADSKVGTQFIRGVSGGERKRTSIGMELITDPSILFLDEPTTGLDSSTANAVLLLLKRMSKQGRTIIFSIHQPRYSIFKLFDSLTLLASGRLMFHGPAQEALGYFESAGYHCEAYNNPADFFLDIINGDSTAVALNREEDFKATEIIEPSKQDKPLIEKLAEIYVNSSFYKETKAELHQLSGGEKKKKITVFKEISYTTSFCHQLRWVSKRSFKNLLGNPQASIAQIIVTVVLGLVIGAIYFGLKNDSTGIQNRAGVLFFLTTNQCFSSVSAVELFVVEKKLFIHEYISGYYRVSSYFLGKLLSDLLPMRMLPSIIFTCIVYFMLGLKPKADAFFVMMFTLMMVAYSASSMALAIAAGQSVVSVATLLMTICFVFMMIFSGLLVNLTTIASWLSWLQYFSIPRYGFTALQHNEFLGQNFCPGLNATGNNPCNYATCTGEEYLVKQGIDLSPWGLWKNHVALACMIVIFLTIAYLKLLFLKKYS

[1] = molecular target: T2, Broad substrate specificity ATP-binding cassette transporter ABCG2 (Homo sapiens, UniProt Q9UNQ0); assay: Inhibition of ABCG2 (unknown origin)-mediated mitoxantrone efflux
T2 sequence (Q9UNQ0 whole entry): T1 sequence (Q9UNQ0 whole entry)

[2] = molecular target: T2, Broad substrate specificity ATP-binding cassette transporter ABCG2; assay: Inhibition of ABCG2 (unknown origin) expressed in HEK293 cells assessed as reduction in mitoxantrone accumulation incubated for 30 mins by flow cytometric method; type: cell-based
[3] = molecular target: T2, Broad substrate specificity ATP-binding cassette transporter ABCG2; assay: as §1; conditions: 5 µM

SMILES | inhibition at 5 µM (ABCG2) [%] | EC50 [1] [µM] | EC50 [2] [µM] | inhibition (INH) [3]
O=C1CCCc2c1c1c(n2CCc2ccccc2)-c2ccccc2C1=O | 100 | 0.43 | – | –
Cc1cc(=O)c2c3c(=O)c4ccccc4c3n(CCc3ccccc3)c2c1=O | 99 | 0.84 | – | –
O=C1CCCc2c1c1c(n2CCCc2ccccc2)-c2ccccc2C1=O | 83 | 0.79 | – | –
C=CCOc1ccc(CNCCc2c[nH]c3ccccc23)cc1OCC | – | – | 0.13 | –
O=C(NCc1cn(CCc2c[nH]c3ccccc23)nn1)c1cc(=O)c2c(OCc3ccc(Br)cc3)cccc2o1 | 87 | – | – | –
COc1ccc2[nH]cc(CCN(C)C(=O)c3cc(=O)c4c(OCc5ccc(Br)cc5)cccc4o3)c2c1 | 101 | – | – | –
Cn1cc(CCNC(=O)c2cc(=O)c3c(OCc4ccc(Br)cc4)cccc3o2)c2ccccc21 | 85 | – | – | –
CN(CCc1c[nH]c2ccccc12)C(=O)c1cc(=O)c2c(OCc3ccc(Br)cc3)cccc2o1 | 105 | – | – | –
COc1ccc2[nH]cc(CCN(C)Cc3cc(=O)c4c(OCc5ccc(Br)cc5)cccc4o3)c2c1 | – | 1.8 | – | 46% and 75%
COc1ccc2[nH]cc(CCNC(=O)c3cc(=O)c4c(OCc5ccc(Br)cc5)cccc4o3)c2c1 | 98 | – | – | –
COc1ccc2c(CCNC(=O)c3cc(=O)c4c(OCc5ccc(Br)cc5)cccc4o3)c[nH]c2c1 | 97 | – | – | –
CN(CCc1cn(C)c2ccccc12)C(=O)c1cc(=O)c2c(OCc3ccc(Br)cc3)cccc2o1 | 88 | – | – | –
COc1ccc2c3c([nH]c2c1)[C@H](C=C(C)C)N1C(=O)[C@@H]2CCCN2C(=O)[C@@H]1C3 [FUMITREMORGIN] | 100 | 2 | – | –
CC(C)n1c2c(c3c1-c1ccccc1C3=O)C(=O)C(Cc1ccccc1)(Cc1ccccc1)CC2 | 90 | 0.61 | – | –
COc1cccc(CCn2c3c(c4c2-c2ccccc2C4=O)C(=O)CCC3)c1 | 78 | 0.31 | – | –
O=C1CC(c2ccccc2)Cc2c1c1c(n2Cc2ccccc2)-c2ccccc2C1=O (stereo not drawn) | 68 | 0.96 | – | –
O=c1ccc(=O)c2c1c1c(=O)c3ccccc3c1n2CCc1ccccc1 | 18 | – | – | –
CC1CC(=O)c2c3c(n(CCc4ccccc4)c2C1)-c1ccccc1C3=O (stereo not drawn) | 100 | 0.23 | – | –
O=C1CC(c2ccccc2)Cc2c1c1c(n2CCc2ccccc2)-c2ccccc2C1=O (stereo not drawn) | 83 | 0.49 | – | –
O=c1cc(-c2ccccc2)c(=O)c2c1c1c(=O)c3ccccc3c1n2Cc1ccccc1 | 41 | – | – | –
O=c1cc(-c2ccccc2)c(=O)c2c1c1c(=O)c3ccccc3c1n2CCc1ccccc1 | 128 | 0.43 | – | –
O=c1ccc(=O)c2c1c1c(=O)c3ccccc3c1n2CCCc1ccccc1 | 33 | – | – | –
